{
  "source": "patent US8541653B2",
  "about": "“Transformation of soybean” (BASF Plant Science GmbH, priority 2004, dated 2013)",
  "type_in_all_cases": "cell-based, soybean",
  "key": {"[1]": {"system": "axillary meristem explants", "assay": "Regeneration capacity of axillary meristem explants on shoot initiation medium with BAP or TDZ", "details": "three weeks on shoot induction medium", "method": "Cultivar Jack was used in both growing conditions tested. For in vitro donor material, sterile seeds were sown in a Plantcon™ (SIGMA) containing ½ MS salts and 2% sucrose pH 5.7. Seedlings were maintained at 25° C. 16/8 hours (light/dark) photoperiod, at a light intensity between 40 to 70 μM m^−2 s^−1. For greenhouse donor plants, seeds were sown on Metromix™ and grown in the greenhouse at 25° C. and 16 hour photoperiod. Greenhouse tissues were excised from the plant after 3 weeks. For greenhouse materials, the tissues were surface sterilized by immersion on a solution containing 5% Tween 20, followed by immersion in 70% (v/v) ethanol for 2 min then washed for 10 min in 3.5% (v/v) sodium hypochlorite solution and finally rinsed 3 times in sterile water. For in vitro donor material, no further sterilization was needed. Axillary meristem explants were placed basipetal into shoot initiation medium containing full strength MS salts and B5 Gamborg's vitamins amended with either 5 μM BAP or 2 mg/L (9.1 μM) TDZ. […]"}, "[2]": {"system": "explants from the cultivar L00106CN", "assay": "GUS (+) foci on explants infected with AGL1 carrying three binary vectors, with L-cysteine", "details": "400 mg/L (3.3 mM) L-cysteine, AGL1, 10 days post-infection", "description": "Seed germination, propagation, A. tumefaciens and axillary meristem explant preparation, and inoculations were done as previously described. In the first experiment, three A. tumefaciens strains, MP90, LBA4404 and AGL1, containing the binary vector pBPSMM192b (SEQ ID NO: 2) were compared. The infected propagated axillary meristems with the 3 A. tumefaciens strains were removed from the co-cultivation media after 3 days and GUS stained 10 days after inoculation.\nIn a separate experiment, GUS expression was evaluated on explants from the cultivar L00106CN 10-days after infection with the Agrobacterium strain AGL1 containing the binary vectors pBPSLM003 [LB-OCSt-bar-pMAS::pSuper-gusINT-NOSt-RB] (SEQ ID NO: 3), pBPSMM192a [LB-NOSt-gusINT-pSuper::AtAhast-AtAhas-pAtAhas-RB], or pBPSMM192b [LB-pSuper-gusINT-NOSt::AtAhast-AtAhas-pAtAhas-RB] (SEQ ID NO: 2). The backbone sequence of pBPSLM003 (SEQ ID NO: 3) is different of that in pBPSMM192a and b (SEQ ID NO: 2). The vector pBPSMM192a [LB-NOSt-gusINT-pSuper::AtAhast-AtAhas-pAtAhas-RB is distinguished from the vector pBPSMM192b (SEQ ID NO: 2) by the orientation of the pSuper-gusINT-NOSt expression cassette, which is in reverse orientation.\nExplants were also evaluated for GUS expression on explants that had been co-cultivated with or without 400 mg/L (3.3 mM) L-cysteine in the solid co-cultivation medium. Twenty explants of each treatment were prepared for each repetition, a total of 2 repetitions in this experiment. GUS expression was scored 10-days-post initial infection."}, "[3]": {"system": "propagated axillary meristems (cultivar Jack)", "assay": "GUS expression on propagated axillary meristem explants co-cultivated with L-cysteine", "details": "for frequency of propagated axillary meristems showing GUS(+) foci, Day3: AGL1", "method": "Explant preparation: Seeds of variety Jack were surface sterilized by exposure to 70% ethanol for 6 min then immersed in a solution that contained 25% commercial bleach (NaOCl) and 0.1% Tween 20 and stirred at 200 rpm for 20 min. Seeds were rinsed 4 times in sterile water. Germination was carried out for 7 day in the dark at 25° C. The root and half of both cotyledons were removed from the seven-day-old seedlings and imbedded into propagation media on 150×20 mm Petri plates. Plates were sealed with Parafilm™ and placed in a culture room at 25° C. in the light for 2 to 5 weeks.\nA. tumefaciens preparation and explant inoculation: A. tumefaciens strain AGL1 carrying the binary vector pBPSMM192b [LB-pSuper-gusINT-NOSt::AtAhast-AtAhas-pAtAhas-RB] (SEQ ID NO: 2) was used. A single colony was used to inoculate 25 to 30 ml LB media containing the appropriate antibiotics. Flasks were shaken on an orbit shaker (220 rpm) at 28° C. for 24 to 36 hours the OD600 reached 0.8 to 1.0. The Agrobacterium was pelleted by centrifugation at 3500 rpm for 8 to 10 min. The bacterial cells were re-suspended in liquid co-cultivation media containing 200 μM acetosyringone. Once cut, the propagated axillary meristem explants were immediately immersed in the A. tumefaciens suspension and remained for 30 minutes. Infected tissues were then transferred either to a vacuum chamber (25-30 mm Hg) for 5 min or placed directly on co-cultivation media. Before transferring onto cultivation medium, explants were blotted dry on sterile filter paper. The treatment tested was the addition of 0, 400, or 800 mg/L L-cysteine into the solid co-cultivation media (0, 3.3, or 6.6 mM, respectively). Co-cultivation was carried out in the dark for 3 days at 25° C. Vacuum infiltration results in an increase of transformation efficiency in protocols which were performed without cysteine-supplementation, but has no significant effect on protocols which were performed with cysteine-supplementation. GUS histochemical assay: Propagated axillary meristem explants infected with A. tumefaciens strain AGL1 were removed from the co-cultivation media after 3 days and stained with Gus overnight at 37° C. Remaining explants were transfer to shoot induction media containing 500 mg/L Timentin™. Gus histochemical assays were also performed at 10 and 45 days after inoculation. Results: After 3 days co-cultivation, the frequency of explants with GUS^+ foci increased from 2.5% to 45 and 63% by the addition of 800 (6.6 mM) or 400 mg/L (3.3 mM) L-cysteine, respectively, into the solid co-cultivation medium. […] The increases in GUS staining were also seen 10 and 45 days after co-cultivation (Table 10)."}, "leaf explants [4]": {"system": "leaf explants", "assay": "Callus/shoot pad regeneration of leaf explants after co-cultivation on CCM with thiol compounds (Example 8, experiment 1)", "details": "L-cysteine levels over 400 mg/L (3.3 mM) in CCM", "method": "(§1) In both experiments, soybean cultivar (e.g., Jack) and the Agrobacterium tumefaciens strain AGL1 containing the binary plasmid pBPSEW008 (SEQ ID NO: 1) was used. The binary plasmid contains nosP-bar-nosT and pUBI-gusINT-nosT. The leaf explants and Agrobacterium were prepared as described earlier. The final Agrobacterium OD600 used for all experiments was 0.5. In the first experiment, two repetitions were made for which the following conditions were tested, • (1) addition of one of five thiol combinations added to CCM (no thiols, 100 mg/L L-cysteine (0.825 mM), 400 mg/L L-cysteine (3.3 mM), 1000 mg/L L-cysteine (8.25 mM), or 1 mM sodium thiolsulfate+1 mM DTT+ 1000 mg/L L-cysteine (8.25 mM)), • (2) 3, 4, or 5 day co-cultivation at 25° C., and • (3) incubation in the dark or under 100 μE/m2s cool white light under a 16 light/8 dark light regime. Ten explants were prepared for each treatment. The explants were grown on SIM medium for 2 weeks after which time the percent of explants developing a callus/shoot pad were recorded."}, "leaf explants [5]": {"system": "leaf explants", "assay": "Transient GUS expression on leaf explants after co-cultivation on CCM with thiol compounds (Example 8, experiment 2)", "details": "for Entire: explant with GUS (+) foci: entire explant immersed; for Dip: explant with GUS (+) foci: petiole end dipped", "method": "as §1, with “regime. In the second experiment, explants were prepared and subjected to the above treatments except all leaf explants were co-cultivated for 5 days and either the entire ex-plant was immersed into the Agrobacterium/CCM suspension for 10 minutes or the cut petiole end of the explant dipped.” for “regime.”, “entirely immersed per treatment and 4” for “prepared for each treatment. The”, “dipped per treatment. All explants were GUS-stained immediately” for “grown on SIM medium for 2 weeks”, “co-cultivation.” for “which time the percent of explants developing a callus/shoot pad were recorded.”"}, "[6]": {"details": "100 mg/l Cys in CCM, Light, 5 days co-cultivation"}},
  "note": "Where “and” joins values, the source holds several entries; their conditions need not be identical. Identical values can stand only once.",
  "data": [
    {"smiles": "c1ccc(CNc2ncnc3nc[nH]c23)cc1", "note": "[BAP, 6-benzylaminopurine]", "values": [
      {"measurement": "Mean # of shoots per explant", "setting": "[1]; Greenhouse plant, BAP 5 uM", "value": 0.20},
      {"measurement": "Mean # of shoots per explant", "setting": "[1]; In vitro plant, BAP 5 uM", "value": 1.97}
    ]},
    {"smiles": "N[C@@H](CS)C(=O)O", "note": "[L-cysteine]", "values": [
      {"measurement": "frequency of GUS (+) foci on explants, pBPSLM003", "setting": "[2]", "value": 85, "unit": "%"},
      {"measurement": "frequency of GUS (+) foci on explants, pBPSMM192a", "setting": "[2]", "value": 77, "unit": "%"},
      {"measurement": "frequency of GUS (+) foci on explants, pBPSMM192b", "setting": "[2]", "value": 95, "unit": "%"},
      {"measurement": "frequency of propagated axillary meristems showing GUS(+) foci, Day 10", "setting": "[3]; 400 mg/L L-cysteine", "value": 90.0, "unit": "%"},
      {"measurement": "frequency of propagated axillary meristems showing GUS(+) foci, Day 45", "setting": "[3]; 400 mg/L L-cysteine", "value": 22.5, "unit": "%"},
      {"measurement": "frequency of propagated axillary meristems showing GUS(+) foci, Day3", "setting": "[3]; 400 mg/L L-cysteine in solid co-cultivation medium", "value": "63% and 65.0%"},
      {"measurement": "frequency of propagated axillary meristems showing GUS(+) foci, Day 10", "setting": "[3]; 800 mg/L L-cysteine", "value": 72.5, "unit": "%"},
      {"measurement": "frequency of propagated axillary meristems showing GUS(+) foci, Day 45", "setting": "[3]; 800 mg/L L-cysteine", "value": 7.5, "unit": "%"},
      {"measurement": "frequency of propagated axillary meristems showing GUS(+) foci, Day3", "setting": "[3]; 800 mg/L L-cysteine in solid co-cultivation medium", "value": "45% and 47.5%"},
      {"measurement": "browning and tissue necrosis of explants", "setting": "[3]; compared with explants not exposed to L-cysteine", "value": "less browning and tissue necrosis"},
      {"measurement": "effect on explant tissue", "setting": "leaf explants [4]", "value": "tissue death"},
      {"measurement": "Entire: explant with GUS (+) foci", "setting": "leaf explants [5]; [6]", "value": "6/10"},
      {"measurement": "Dip: explant with GUS (+) foci", "setting": "leaf explants [5]; [6]", "value": "0/4"},
      {"measurement": "Entire: explant with GUS (+) foci", "setting": "leaf explants [5]; 100 mg/l Cys, Dark", "value": "7/10"},
      {"measurement": "Dip: explant with GUS (+) foci", "setting": "leaf explants [5]; 100 mg/l Cys, Dark", "value": "0/4"},
      {"measurement": "Entire: explant with GUS (+) foci", "setting": "leaf explants [5]; 400 mg/l Cys, Dark", "value": "9/10"},
      {"measurement": "Dip: explant with GUS (+) foci", "setting": "leaf explants [5]; 400 mg/l Cys, Dark", "value": "3/4"},
      {"measurement": "Entire: explant with GUS (+) foci", "setting": "leaf explants [5]; 400 mg/l Cys, Light", "value": "9/10"},
      {"measurement": "Dip: explant with GUS (+) foci", "setting": "leaf explants [5]; 400 mg/l Cys, Light", "value": "1/4"},
      {"measurement": "effect on explant tissue", "setting": "leaf explants [5]; 1000 mg/L L-cysteine in CCM", "value": "significant bleaching"},
      {"measurement": "Entire: explant with GUS (+) foci", "setting": "leaf explants [5]; 1000 mg/l Cys, Dark", "value": "3/10"},
      {"measurement": "Dip: explant with GUS (+) foci", "setting": "leaf explants [5]; 1000 mg/l Cys, Dark", "value": "0/4"},
      {"measurement": "Entire: explant with GUS (+) foci", "setting": "leaf explants [5]; 1000 mg/l Cys, Light", "value": "3/10"},
      {"measurement": "Dip: explant with GUS (+) foci", "setting": "leaf explants [5]; 1000 mg/l Cys, Light", "value": "1/4"}
    ]},
    {"smiles": "O=C(Nc1ccccc1)Nc1cnns1", "note": "[TDZ]", "values": [
      {"measurement": "Mean # of shoots per explant", "setting": "[1]; Greenhouse plant, TDZ 9.1 μM", "value": 0.32},
      {"measurement": "Mean # of shoots per explant", "setting": "[1]; In vitro plant, TDZ 9.1 μM", "value": 0.74}
    ]}
  ]
}
